The values below come from article PMC8620390, “New Multi-Targeted Antiproliferative Agents: Design and Synthesis of IC261-Based Oxindoles as Potential Tubulin, CK1 and EGFR Inhibitors” (Pharmaceuticals, 2021).

One data set has as its system MCF-7. The data set is described as follows: Two-dose antiproliferative screening, SRB assay, MCF-7. The data set is classed as cell-based. The note with it: Homo sapiens, MCF7, 72 h, triplicates. As to the method: (§1) MCF-7(breast adenocarcinoma), PC-3 (prostate cancer) and COLO-205 (colorectal cancer) were obtained from Nawah Scientific inc., (Mokatam, Cairo, Egypt). Cells were maintained in Dulbecco’s Modified Eagle’s media (DMEM media) supplemented with […] of streptomycin, 100 units/mL of penicillin and 10% of heat-inactivated fetal bovine serum in humidified, 5% (v/v) CO2 atmosphere at 37 °C.
(§2) Cell viability was assessed by the sulforhodamine B (SRB) assay. Aliquots of cell suspension (5 × 10^3 cells, 100 μL) were transferred into 96 well plates and incubated in complete media for 24 h. Cells were treated with another aliquot media (100 μL) containing compounds 3a–f, 4a–f, 6a–f, 7a–f, 9a–b at concentrations of 1 and 10 μM). After 72 h of drug exposure, cells were fixed by replacing media with trichloroacetic acid (TCA, 10%, 150 μL) and incubated at 4 °C for 1 h. The TCA solution was removed, and the cells were washed five times with distilled water. Aliquots of SRB solution (0.4%w/v, 70 μL) were added and incubated in a dark place at room temperature for 10 min. Plates were washed three times with 1% acetic acid and allowed to air dry overnight. Then, a solution of TRIS base and TRIS HCl (TRIS buffer, 10 mM, 150 μL) was added to dissolve protein bound SRB stain. The absorbance was measured at 540 nm using BMGLABTECH®–FLUOstar omega micro-plate reader (Ortenberg, Germany).
(In general: Sulforhodamine B stains cellular protein and so reports cell mass.)

For a further data set, the system named is PC-3. Nature of the data set: Two-dose antiproliferative screening, SRB assay, PC-3. The settings on record: triplicates. The data set is classed as cell-based. The method, then:
as §1, §2

The test system of data set [1] is COLO-205. The data set is described as follows: Two-dose antiproliferative screening, SRB assay, COLO-205. The data set is classed as cell-based, human. The settings on record: Homo sapiens, COLO 205, 72 h, triplicates. The method, then: as §1, §2
Data set [2] deals with COLO-205. The data set is described as follows: IC50 against COLO-205, SRB assay. The format is cell-based. The settings on record: Homo sapiens, 0.001–100 μM. The method, then: as §2
The same procedures used to screen two-dose anticancer activities were applied in determining IC50 values against COLO-205 using SRB assay. Cells were maintained at Roswell Park Memorial Institute media (RPMI media). The test was performed using 0.001–100 μM of compounds 4a (IC261), 4b, 4d, 4e, 6e and 6f. IC50 values were calculated using the equation for Boltzman sigmoidal concentration–response curve using the nonlinear regression fitting models by GraphPad, Prism version 5 (GraphPad Software Inc., La Jolla, CA, USA).

In a further data set the target is T1, EGFR (Homo sapiens, UniProt P00533).
T1 construct: enough purified recombinant EGFR enzyme, EGFR substrate, ATP, and kinase assay buffer; purchased Sigma Aldrich
T1 sequence (P00533 25-1210): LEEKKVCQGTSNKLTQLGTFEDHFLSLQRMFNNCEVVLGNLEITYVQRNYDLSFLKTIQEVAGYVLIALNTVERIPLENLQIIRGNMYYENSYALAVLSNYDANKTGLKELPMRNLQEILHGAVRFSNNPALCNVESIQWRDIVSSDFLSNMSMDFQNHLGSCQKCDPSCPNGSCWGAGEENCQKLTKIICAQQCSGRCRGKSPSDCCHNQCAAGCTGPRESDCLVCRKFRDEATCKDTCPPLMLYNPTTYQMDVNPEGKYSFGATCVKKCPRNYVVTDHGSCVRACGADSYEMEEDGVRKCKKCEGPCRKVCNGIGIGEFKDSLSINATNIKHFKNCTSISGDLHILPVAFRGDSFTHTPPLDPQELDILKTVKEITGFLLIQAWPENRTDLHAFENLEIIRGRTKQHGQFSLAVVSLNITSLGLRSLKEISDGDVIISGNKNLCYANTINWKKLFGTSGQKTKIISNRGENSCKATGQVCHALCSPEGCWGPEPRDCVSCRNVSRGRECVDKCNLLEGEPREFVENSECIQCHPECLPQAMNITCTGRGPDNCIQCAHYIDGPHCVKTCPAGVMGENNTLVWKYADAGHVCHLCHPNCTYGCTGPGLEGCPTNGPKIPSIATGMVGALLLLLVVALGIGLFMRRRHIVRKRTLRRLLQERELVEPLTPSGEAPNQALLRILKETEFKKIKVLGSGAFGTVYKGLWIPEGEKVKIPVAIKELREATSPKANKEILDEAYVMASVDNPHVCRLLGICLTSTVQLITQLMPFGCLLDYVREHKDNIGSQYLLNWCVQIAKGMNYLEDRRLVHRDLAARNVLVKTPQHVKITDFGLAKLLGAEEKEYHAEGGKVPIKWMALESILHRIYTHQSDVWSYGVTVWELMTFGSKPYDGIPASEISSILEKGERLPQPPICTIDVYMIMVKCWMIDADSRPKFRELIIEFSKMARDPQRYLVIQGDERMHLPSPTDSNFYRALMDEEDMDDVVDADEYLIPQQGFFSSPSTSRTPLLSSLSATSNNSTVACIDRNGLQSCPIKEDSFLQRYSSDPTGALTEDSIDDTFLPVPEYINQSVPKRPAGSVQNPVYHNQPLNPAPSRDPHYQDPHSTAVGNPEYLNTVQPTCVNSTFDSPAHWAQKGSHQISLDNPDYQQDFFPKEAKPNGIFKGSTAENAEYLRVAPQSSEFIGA
Nature of the data set: EGFR kinase assay kit (Kinase-Glo MAX). The format is biochemical. The settings on record: EGFR-TK kinase kit; read-out: EGFR Inhibition IC50 (converted). As to the method:
The EGFR Kinase Assay Kit (Sigma Aldrich, St. Louis, […], USA) is designed to measure EGFR Kinase activity for screening and profiling applications using Kinase-Glo® MAX as a detection reagent. The EGFR Kinase Assay Kit (Sigma Aldrich, St. Louis, […], USA) comes in a convenient 96-well format, with enough purified recombinant EGFR enzyme, EGFR substrate, ATP, and kinase assay buffer for 100 enzyme reactions. The master mixture (25 μL per well) was prepared out of Kinase assay buffer (6 μL), ATP (500 μM, 1 μL), PTK substrate (50×, 1 μL) and water (17 μL) and added to each well. Inhibitor solution was made by dissolving 4b in a liquid labelled” inhibitor buffer”. An inhibitor solution (5 μL) was then added to each well, labelled as “Test Inhibitor”. For “Positive Control” and “Blank”, add 5 μL inhibitor buffer). EGFR was thawed on ice. Its tube was spun briefly to recover the full content of the tube. The enzyme was diluted with 1× Kinase assay buffer enzyme to 1 ng/μL. The reaction was initiated by adding 20 μL of diluted EGFR enzyme to the wells designated “Positive Control” and “Test Inhibitor Control”. The plate was incubated at 30 °C for 40 min. After the 40-min reaction, the Kinase-Glo Max (50 μL) reagent was added to each well. The plate was covered with aluminum foil, incubated at room temperature for 15 min and the luminescence was measured using the microplate reader.
(In Kinase-Glo more light means more ATP remaining.)

Data set [3] concerns the target CK1. Nature of the data set: Casein Kinase 1 (CK1) 33P-ATP assay. The format is biochemical. As to the method:
The active CK1, kinase assay buffer, substrate solution and kinase dilution buffer were thawed on ice (^33P-ATP assay Cocktail). In a precooled microcentrifuge tube, 10 μL of kinase solution, 5 μL of substrate solution and 5 μL of cold water (4 °C) were added, then a blank control was set up. Each reaction was initiated by adding 5 μL of ^33P-ATP assay cocktail then incubated for 15 min in a water bath (30 °C), then 20 μL of the reaction mixture were spotted onto an individually precut strip of phosphocellulose P81 paper and allowed to air dry followed by washing using 1% H2SO4 with constant gentle stirring. A radioactive control was set up then 5 μL of γ-^33P-ATP assay cocktail was spotted on P81 paper, the sample was allowed to air dry for 2 min then the radioactivity count was recorded.

Data set [4] has as its system CK1. The note with it: cited from earlier work.

As usually defined, the inhibition is the share of the control response that was lost under treatment. Usually IC50 stands for the concentration needed to halve the response being measured. Broadly, the melting point is the temperature, or range, at which the solid turns liquid.

Molecule `COc1cc(OC)c(/C=C2/C(=O)Nc3ccc(OC)cc32)c(OC)c1` [Compound 4e, (E)-5-methoxy-3-(2,4,6-trimethoxybenzylidene)indolin-2-one] yielded a melting point of 221 to 223 °C. Further, in the data set with MCF-7 (1 μM, read-out: Growth Inhibition (%) MCF-7 1 μM Average), the inhibition at 1 µM was determined as 34.5%. Further, the inhibition at 10 µM in the data set with MCF-7 (10 μM, read-out: Growth Inhibition (%) MCF-7 10 μM Average) is 68.9%. The “Growth Inhibition (%) PC-3 1 μM Average” value in the data set on PC-3 (1 μM, 72 h) was determined as 42.36%. Besides, the inhibition at 1 µM in the data set on PC-3 (Homo sapiens, PC-3, 72 h, 1 μM, read-out: Growth Inhibition (%) PC-3 1 μM Average) was 43%. For the same molecule, in the data set on PC-3 (Homo sapiens, PC-3, 72 h, 10 μM, read-out: Growth Inhibition (%) PC-3 10 μM Average), the inhibition at 10 µM was found to be 63.3%. Besides, the inhibition at 1 µM with COLO-205 [1] (1 μM, read-out: Growth Inhibition (%) COLO-205 1 μM Average) stood at 8.05%. Also, the inhibition at 10 µM in the data set with COLO-205 [1] (10 μM, read-out: Growth Inhibition (%) COLO-205 10 μM Average) turned out to be 31.9%. The 50% inhibitory concentration (IC50) in the data set on COLO-205 [2] turned out to be 300 nM. Also, at EGFR, the IC50 was 1170 nM. The “Casein Kinase I Inhibition IC50” value at CK1 [3] stood at 13.08 µg/mL. For the same molecule, the “fold less potent on CK1 than compound 4b” value with CK1 [3] (ratio of CK1 IC50 vs 4b) is on record as “about 6.8 fold”.
`Nc1ccc2c(c1)/C(=C1/Nc3ccccc3/C1=N\O)C(=O)N2` [X]: the “inhibitory activity against CK1” value in the data set with CK1 [4] was 0.13 µM.
